Laboratory results reported in PubChem BioAssay (NCI).
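The compound was tested at five concentrations on cells cultured in 96-well plates, with a 48-hour exposure period. GI50: concentration for 50% inhibition of growth. TGI marks complete inhibition of growth.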

Experiments:
Experiment in all cases: growth of human tumour cells (NCI), 48 h
EKVX NSCLC = system: EKVX NSCLC
SW-620 colon = system: SW-620 colon
786-0 renal = system: 786-0 renal
HL-60(TB) leukemia = system: HL-60(TB) leukemia
SNB-19 CNS = system: SNB-19 CNS
SNB-75 CNS = system: SNB-75 CNS
HOP-62 NSCLC = system: HOP-62 NSCLC
BT-549 breast = system: BT-549 breast
CAKI-1 renal = system: CAKI-1 renal
HCT-15 colon = system: HCT-15 colon
A549 NSCLC = system: A549 NSCLC
NCI-H522 lung = system: NCI-H522 lung
HCC-2998 colon = system: HCC-2998 colon
RPMI-8226 leukemia = system: RPMI-8226 leukemia
U251 CNS = system: U251 CNS
NCI/ADR-RES ovarian = system: NCI/ADR-RES ovarian
SF-268 CNS = system: SF-268 CNS
SK-MEL-2 melanoma = system: SK-MEL-2 melanoma
K-562 leukemia = system: K-562 leukemia
SK-MEL-5 melanoma = system: SK-MEL-5 melanoma
SF-539 CNS = system: SF-539 CNS
HCT-116 colon = system: HCT-116 colon
MCF7 breast = system: MCF7 breast
OVCAR-3 ovarian = system: OVCAR-3 ovarian
RXF 393 renal = system: RXF 393 renal
SF-295 CNS = system: SF-295 CNS
HOP-92 NSCLC = system: HOP-92 NSCLC
ACHN renal = system: ACHN renal
DU-145 prostate = system: DU-145 prostate
IGROV1 ovarian = system: IGROV1 ovarian
T-47D breast = system: T-47D breast
COLO 205 colon = system: COLO 205 colon
UO-31 renal = system: UO-31 renal
NCI-H226 lung = system: NCI-H226 lung
NCI-H460 lung = system: NCI-H460 lung
KM12 colon = system: KM12 colon
OVCAR-8 ovarian = system: OVCAR-8 ovarian
MOLT-4 leukemia = system: MOLT-4 leukemia
A498 renal = system: A498 renal
LOX IMVI melanoma = system: LOX IMVI melanoma
SK-OV-3 ovarian = system: SK-OV-3 ovarian
TK-10 renal = system: TK-10 renal
HS 578T breast = system: HS 578T breast
CCRF-CEM leukemia = system: CCRF-CEM leukemia
MDA-MB-435 = system: MDA-MB-435
OVCAR-5 ovarian = system: OVCAR-5 ovarian
NCI-H23 lung = system: NCI-H23 lung
MDA-MB-231 breast = system: MDA-MB-231 breast
SK-MEL-28 melanoma = system: SK-MEL-28 melanoma
OVCAR-4 ovarian = system: OVCAR-4 ovarian
HT29 colon = system: HT29 colon
PC-3 prostate = system: PC-3 prostate
M14 melanoma = system: M14 melanoma
UACC-62 melanoma = system: UACC-62 melanoma
SN12C renal = system: SN12C renal
MALME-3M melanoma = system: MALME-3M melanoma

N#Cc1c(-c2ccc(Cl)cc2)csc1NC(=O)Nc1ccc(Cl)c(C(F)(F)F)c1
GI50 (EKVX NSCLC): 385 nM | TGI (EKVX NSCLC): > 50000 nM | GI50 (SW-620 colon): 255 nM | TGI (SW-620 colon): 2950 nM | GI50 (786-0 renal): 3180 nM | TGI (786-0 renal): 13400 nM | GI50 (HL-60(TB) leukemia): 793 nM | TGI (HL-60(TB) leukemia): 2110 nM | GI50 (SNB-19 CNS): 1270 nM | TGI (SNB-19 CNS): 35200 nM | GI50 (SNB-75 CNS): 1360 nM | TGI (SNB-75 CNS): 7720 nM | GI50 (HOP-62 NSCLC): 1010 nM | TGI (HOP-62 NSCLC): 4420 nM | GI50 (BT-549 breast): 1210 nM | TGI (BT-549 breast): 4540 nM | GI50 (CAKI-1 renal): 691 nM | TGI (CAKI-1 renal): 5570 nM | GI50 (HCT-15 colon): 208 nM | TGI (HCT-15 colon): 5400 nM | GI50 (A549 NSCLC): 630 nM | TGI (A549 NSCLC): 12400 nM | GI50 (NCI-H522 lung): 121 nM | TGI (NCI-H522 lung): 550 nM | GI50 (HCC-2998 colon): 1330 nM | TGI (HCC-2998 colon): 17100 nM | GI50 (RPMI-8226 leukemia): 153 nM | TGI (RPMI-8226 leukemia): 1140 nM | GI50 (U251 CNS): 607 nM | TGI (U251 CNS): 1910 nM | GI50 (NCI/ADR-RES ovarian): 536 nM | TGI (NCI/ADR-RES ovarian): 13400 nM | GI50 (SF-268 CNS): 1290 nM | TGI (SF-268 CNS): 21300 nM | GI50 (SK-MEL-2 melanoma): 872 nM | TGI (SK-MEL-2 melanoma): 7350 nM | GI50 (K-562 leukemia): 177 nM | TGI (K-562 leukemia): 6270 nM | GI50 (SK-MEL-5 melanoma): 639 nM | TGI (SK-MEL-5 melanoma): 3700 nM | GI50 (SF-539 CNS): 1500 nM | TGI (SF-539 CNS): 6960 nM | GI50 (HCT-116 colon): 224 nM | TGI (HCT-116 colon): 6420 nM | GI50 (MCF7 breast): 229 nM | TGI (MCF7 breast): 11100 nM | GI50 (OVCAR-3 ovarian): 262 nM | TGI (OVCAR-3 ovarian): 1470 nM | GI50 (RXF 393 renal): 2050 nM | TGI (RXF 393 renal): 17400 nM | GI50 (SF-295 CNS): 326 nM | TGI (SF-295 CNS): 1870 nM | GI50 (HOP-92 NSCLC): 222 nM | TGI (HOP-92 NSCLC): 2090 nM | GI50 (ACHN renal): 234 nM | TGI (ACHN renal): 5180 nM | GI50 (DU-145 prostate): 527 nM | TGI (DU-145 prostate): 11200 nM | GI50 (IGROV1 ovarian): 626 nM | TGI (IGROV1 ovarian): 18700 nM | GI50 (T-47D breast): 106 nM | TGI (T-47D breast): 696 nM | GI50 (COLO 205 colon): 895 nM | TGI (COLO 205 colon): 2580 nM | GI50 (UO-31 renal): 1470 nM | TGI (UO-31 renal): > 50000 nM | GI50 (NCI-H226 lung): 1120 nM | TGI (NCI-H226 lung): 12400 nM | GI50 (NCI-H460 lung): 209 nM | TGI (NCI-H460 lung): 1200 nM | GI50 (KM12 colon): 251 nM | TGI (KM12 colon): 6960 nM | GI50 (OVCAR-8 ovarian): 388 nM | TGI (OVCAR-8 ovarian): 15700 nM | GI50 (MOLT-4 leukemia): 605 nM | TGI (MOLT-4 leukemia): 5060 nM | GI50 (A498 renal): 536 nM | TGI (A498 renal): 5680 nM | GI50 (LOX IMVI melanoma): 1140 nM | TGI (LOX IMVI melanoma): 7380 nM | GI50 (SK-OV-3 ovarian): 2490 nM | TGI (SK-OV-3 ovarian): 14400 nM | GI50 (TK-10 renal): 757 nM | TGI (TK-10 renal): 11100 nM | GI50 (HS 578T breast): 1360 nM | TGI (HS 578T breast): 8240 nM | GI50 (CCRF-CEM leukemia): 243 nM | TGI (CCRF-CEM leukemia): 7670 nM | GI50 (MDA-MB-435): 1490 nM | TGI (MDA-MB-435): > 50000 nM | GI50 (OVCAR-5 ovarian): 4770 nM | TGI (OVCAR-5 ovarian): > 50000 nM | GI50 (NCI-H23 lung): 201 nM | TGI (NCI-H23 lung): 16700 nM | GI50 (MDA-MB-231 breast): 995 nM | TGI (MDA-MB-231 breast): 6240 nM | GI50 (SK-MEL-28 melanoma): 1850 nM | TGI (SK-MEL-28 melanoma): 40100 nM | GI50 (OVCAR-4 ovarian): 691 nM | TGI (OVCAR-4 ovarian): 3460 nM | GI50 (HT29 colon): 560 nM | TGI (HT29 colon): 3540 nM | GI50 (PC-3 prostate): 161 nM | TGI (PC-3 prostate): 2040 nM | GI50 (M14 melanoma): 1140 nM | TGI (M14 melanoma): 8350 nM | GI50 (UACC-62 melanoma): 326 nM | TGI (UACC-62 melanoma): 8640 nM | GI50 (SN12C renal): 348 nM | TGI (SN12C renal): > 50000 nM | GI50 (MALME-3M melanoma): 1010 nM | TGI (MALME-3M melanoma): 3940 nM
